Measured values taken from patent publication US20090036450A1, “PYRAZOLE COMPOUNDS AND USE THEREOF” (JAPAN TOBACCO, INC., priority 2006, published 2009).

Biological target: T1, human liver glycogen phosphorylase (Homo sapiens, UniProt P06737)
T1 construct: made in house; host or cells: Sf9 insect cells (suspension of disrupted cells, diluted in BES buffer, not purified)
T1 sequence (P06737 1-847): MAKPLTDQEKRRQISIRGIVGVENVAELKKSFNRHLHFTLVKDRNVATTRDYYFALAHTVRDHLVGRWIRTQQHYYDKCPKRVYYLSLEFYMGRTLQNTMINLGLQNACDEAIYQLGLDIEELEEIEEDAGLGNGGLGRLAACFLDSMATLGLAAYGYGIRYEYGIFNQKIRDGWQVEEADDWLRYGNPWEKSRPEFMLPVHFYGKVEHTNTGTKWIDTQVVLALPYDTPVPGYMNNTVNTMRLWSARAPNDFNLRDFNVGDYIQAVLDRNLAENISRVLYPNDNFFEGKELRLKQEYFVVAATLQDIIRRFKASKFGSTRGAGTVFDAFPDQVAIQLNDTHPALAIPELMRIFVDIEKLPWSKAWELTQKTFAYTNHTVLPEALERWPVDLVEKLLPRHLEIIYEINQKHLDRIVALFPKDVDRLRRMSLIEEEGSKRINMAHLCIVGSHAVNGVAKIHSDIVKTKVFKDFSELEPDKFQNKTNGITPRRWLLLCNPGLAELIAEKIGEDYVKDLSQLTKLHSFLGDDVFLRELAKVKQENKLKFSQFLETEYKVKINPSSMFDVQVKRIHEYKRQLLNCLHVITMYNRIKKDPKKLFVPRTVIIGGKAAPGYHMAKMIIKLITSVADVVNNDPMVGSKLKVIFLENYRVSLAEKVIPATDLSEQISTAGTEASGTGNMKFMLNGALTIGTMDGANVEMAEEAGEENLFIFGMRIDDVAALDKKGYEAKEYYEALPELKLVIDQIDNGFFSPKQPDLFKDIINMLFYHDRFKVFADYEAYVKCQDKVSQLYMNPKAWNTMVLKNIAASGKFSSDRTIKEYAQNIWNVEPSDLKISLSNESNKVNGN
Test: Liver glycogen phosphorylase activity, forward reaction system (NADPH detection at 340 nm)
Assay type: biochemical
Conditions: enzyme inhibitory activity against recombinant human liver glycogen phosphorylase (Sf9 cell lysate), room temperature, 75 minutes
Experimental: The glycogen phosphorylase activity was determined by a method using a forward reaction system.
The following method was used to determine the glycogen phosphorylase activity using a forward reaction system. Glucose-1-phosphate generated from glycogen by glycogen phosphorylase was converted to glucono-δ-lactone-6-phosphate by transphosphorylation and dehydrogenation reactions using phosphoglucomutase and glucose-6-phosphate dehydrogenase (G6PDH). At this time, NADPH generated from NADP in the dehydrogenation reaction by G6PDH was detected.
An enzyme solution of human liver glycogen phosphorylase was obtained by diluting with 100 mmol/L BES buffer (pH 6.8, containing 2 mmol/L EDTA) a suspension disrupted Sf9 cells in which a recombinant human liver glycogen phosphorylase was forcibly expressed. Phosphate buffer (16 mmol/L KH2PO4, containing 24 mmol/L Na2HPO4) was used as a substrate solution. A mixture of 8 U/mL phosphoglucomutase and 60 U/mL G6PDH was prepared with BES buffer. A reaction buffer (1.4 mmol/L NADP, 30 mmol/L MgCl2, 8 μmol/L glucose-1,6-diphosphate, 8 mg/mL glycogen, 40 mmol/L BES, containing 0.8 mmol/L EDTA) and a glucose solution (75 mmol/L glucose and 100 mmol/L BES, containing 2 mmol/L EDTA) were prepared. A test substance was dissolved in 1% DMSO aqueous solution.
To a mixture of the glucose solution (20 μL), the substrate solution (20 μL), the reaction buffer (100 μL), and the test substance (20 μL), the recombinant human liver glycogen phosphorylase solution (20 μL), and a mixture (20 μL) of phosphoglucomutase and G6PDH were added to initiate an enzymatic reaction. To a control, 1% DMSO aqueous solution was added instead of the test substance. A solution to which the substrate was not added was used as a blank. After initiation of the reaction, absorbance at 340 nm was measured immediately. The reaction was performed at room temperature for 75 minutes, and then absorbance at 340 nm was measured again. The enzyme activity was obtained by deducting the change in absorbance of the blank for 75 minutes from the change in absorbance over 75 minutes. The inhibition rate (%) of the test substance was calculated by “(1−(enzyme activity of test substance)/(enzyme activity of control))×100”.
“IC50” represents an enzyme inhibitory activity against human liver glycogen phosphorylase.

IC50 [nM]	SMILES
100 to 300	O=C(O)c1cc(CNC(=O)c2cc(NC(=O)c3cc(F)c(F)cc3Cl)[nH]n2)on1 [Example 3-3, 5-(2-chloro-4,5-difluoro-benzoylamino)-1H-pyrazole-3-carboxylic acid (3-carboxy-isoxazol-5-ylmethyl)-amide]
< 100	Cc1nc(COC(=O)c2cccs2)c(CNC(=O)c2cc(NC(=O)c3cc(F)c(F)cc3Cl)[nH]n2)o1 [Example 3-22, 5-(2-chloro-4,5-difluoro-benzoylamino)-1H-pyrazole-3-carboxylic acid [2-methyl-4-(thiophene-2-carbonyloxymethyl)-oxazol-5-ylmethyl]-amide]
< 100	Cc1nc(C2CC2)c(CNC(=O)c2cc(NC(=O)c3cc(F)c(F)cc3Cl)[nH]n2)o1 [Example 1-37, 5-(2-chloro-4,5-difluoro-benzoylamino)-1H-pyrazole-3-carboxylic acid (4-cyclopropyl-2-methyl-oxazol-5-ylmethyl)-amide]
< 100	Cc1noc(-c2ccnc(Cl)c2)c1CNC(=O)c1cc(NC(=O)c2cc(F)c(F)cc2Cl)[nH]n1 [Example 1-20, 5-(2-chloro-4,5-difluoro-benzoylamino)-1H-pyrazole-3-carboxylic acid [5-(2-chloro-pyridin-4-yl)-3-methylisoxazol-4-ylmethyl]-amide]
< 100	Cc1nc(Sc2ccccc2)oc1CNC(=O)c1cc(NC(=O)c2cc(F)c(F)cc2Cl)[nH]n1 [Example 1-49, 5-(2-chloro-4,5-difluoro-benzoylamino)-1H-pyrazole-3-carboxylic acid (4-methyl-2-phenylsulfanyl-oxazol-5-ylmethyl)-amide]
< 100	Cc1nc(C(=O)NCc2ccccc2)oc1CNC(=O)c1cc(NC(=O)c2cc(F)c(F)cc2Cl)[nH]n1 [Example 3-16, 5-(2-chloro-4,5-difluoro-benzoylamino)-1H-pyrazole-3-carboxylic acid (2-benzylcarbamoyl-4-methyl-oxazol-5-ylmethyl)-amide]
< 100	Cc1nc(CNC(=O)c2cc(NC(=O)c3cc(F)c(F)cc3Cl)[nH]n2)oc1C(=O)O [Example 3-18, 5-(2-chloro-4,5-difluoro-benzoylamino)-1H-pyrazole-3-carboxylic acid (5-carboxy-4-methyl-oxazol-2-ylmethyl)-amide]
100 to 300	O=C(NCc1sccc1OCc1ccccc1)c1cc(NC(=O)c2cc(F)c(F)cc2Cl)[nH]n1 [Example 1-3, 5-(2-chloro-4,5-difluoro-benzoylamino)-1H-pyrazole-3-carboxylic acid (3-benzyloxy-thiophen-2-ylmethyl)-amide]
< 100	Cc1nc(C2CCCCC2)oc1CNC(=O)c1cc(NC(=O)c2cc(F)c(F)cc2Cl)[nH]n1 [Example 1-40, 5-(2-chloro-4,5-difluoro-benzoylamino)-1H-pyrazole-3-carboxylic acid (2-cyclohexyl-4-methyl-oxazol-5-ylmethyl)-amide]
< 100	CCOC(=O)c1oc(CNC(=O)c2cc(NC(=O)c3cc(F)c(F)cc3Cl)[nH]n2)nc1C [Example 1-51, 5-(2-chloro-4,5-difluoro-benzoylamino)-1H-pyrazole-3-carboxylic acid (5-ethoxycarbonyl-4-methyl-oxazol-2-ylmethyl)-amide]
< 100	Cc1ccccc1-c1nnc(CNC(=O)c2cc(NC(=O)c3cc(F)c(F)cc3Cl)[nH]n2)o1 [Example 1-53, 5-(2-chloro-4,5-difluoro-benzoylamino)-1H-pyrazole-3-carboxylic acid [5-(2-methyl-phenyl)-[1,3,4]oxadiazol-2-ylmethyl]-amide]
< 100	CN(C)c1ccc(-c2nnc(CNC(=O)c3cc(NC(=O)c4cc(F)c(F)cc4Cl)[nH]n3)o2)cc1 [Example 1-54, 5-(2-chloro-4,5-difluoro-benzoylamino)-1H-pyrazole-3-carboxylic acid [5-(4-dimethylamino-phenyl)-[1,3,4]oxadiazol-2-ylmethyl]-amide]
< 100	O=C(NCc1n[nH]c(-c2ccc(Cl)cc2)n1)c1cc(NC(=O)c2cc(F)c(F)cc2Cl)[nH]n1 [Example 1-87, 5-(2-chloro-4,5-difluoro-benzoylamino)-1H-pyrazole-3-carboxylic acid [5-(4-chloro-phenyl)-1H-[1,2,4]triazol-3-ylmethyl]-amide]
< 100	Cc1nc(C2CC2)oc1CNC(=O)c1cc(NC(=O)c2cc(F)c(F)cc2Cl)[nH]n1 [Example 1-39, 5-(2-chloro-4,5-difluoro-benzoylamino)-1H-pyrazole-3-carboxylic acid (2-cyclopropyl-4-methyl-oxazol-5-ylmethyl)-amide]
< 100	COc1ccc(Cc2nc(CNC(=O)c3cc(NC(=O)c4cc(F)c(F)cc4Cl)[nH]n3)n[nH]2)cc1OC [Example 1-88, 5-(2-chloro-4,5-difluoro-benzoylamino)-1H-pyrazole-3-carboxylic acid [5-(3,4-dimethoxy-benzyl)-1H-[1,2,4]triazol-3-ylmethyl]-amide]
< 100	Cc1onc(-c2ccc(C#N)cc2)c1CNC(=O)c1cc(NC(=O)c2cc(F)c(F)cc2Cl)[nH]n1 [Example 1-14, 5-(2-chloro-4,5-difluoro-benzoylamino)-1H-pyrazole-3-carboxylic acid [3-(4-cyano-phenyl)-5-methylisoxazol-4-ylmethyl]-amide]
< 100	Cc1noc(-c2nc(C)oc2CNC(=O)c2cc(NC(=O)c3cc(F)c(F)cc3Cl)[nH]n2)n1 [Example 1-71, 5-(2-chloro-4,5-difluoro-benzoylamino)-1H-pyrazole-3-carboxylic acid [2-methyl-4-(3-methyl-[1,2,4]oxadiazol-5-yl)-oxazol-5-ylmethyl]-amide]
< 100	CCOC(=O)c1cc(CNC(=O)c2cc(NC(=O)c3cc(F)c(F)cc3Cl)[nH]n2)on1 [Example 1-23, 5-(2-chloro-4,5-difluoro-benzoylamino)-1H-pyrazole-3-carboxylic acid (3-ethoxycarbonylisoxazol-5-ylmethyl)-amide]
< 100	COCc1nc(C)c(CNC(=O)c2cc(NC(=O)c3cc(F)c(F)cc3Cl)[nH]n2)o1 [Example 1-45, 5-(2-chloro-4,5-difluoro-benzoylamino)-1H-pyrazole-3-carboxylic acid (2-methoxymethyl-4-methyl-oxazol-5-ylmethyl)-amide]
< 100	Cc1nc(C(=O)O)sc1CNC(=O)c1cc(NC(=O)c2cc(F)c(F)cc2Cl)[nH]n1 [Example 3-2, sodium 5-({[5-(2-chloro-4,5-difluoro-benzoylamino)-1H-pyrazole-3-carbonyl]-amino}-methyl)-4-methyl-thiazole-2-carboxylate]
< 100	COc1ccc(-c2nnsc2CNC(=O)c2cc(NC(=O)c3cc(F)c(F)cc3Cl)[nH]n2)cc1 [Example 1-69, 5-(2-chloro-4,5-difluoro-benzoylamino)-1H-pyrazole-3-carboxylic acid [4-(4-methoxy-phenyl)-[1,2,3]thiadiazol-5-ylmethyl]-amide]
< 100	Cc1onc(-c2ccc(N(C)C)cc2)c1CNC(=O)c1cc(NC(=O)c2cc(F)c(F)cc2Cl)[nH]n1 [Example 1-15, 5-(2-chloro-4,5-difluoro-benzoylamino)-1H-pyrazole-3-carboxylic acid [3-(4-dimethylamino-phenyl)-5-methylisoxazol-4-ylmethyl]-amide]
